# Patent publication US8577624B2, “Crystal structure of a plasma membrane proton pump” (Aarhus Universitet, priority 2007, dated 2013)
# Assays:
# [1] = system: plasma membrane H+-ATPases; settings: vanadate in its plus 5 valence state; cited from earlier work
# [2] = biological target: T1, plasma membrane H+-ATPase (Arabidopsis thaliana, UniProt P19456); experiment: Inhibition of H+ ATPase ATP hydrolytic activity by platin and holmium ions (Pi production); type: biochemical; settings: 20 mM Mops pH 6.5, 50 mM KCl, 8 mM MgCl2, 3 mM ATP; various concentrations; FIG. 12; numbers only in figure
# T1 sequence (P19456 1-948): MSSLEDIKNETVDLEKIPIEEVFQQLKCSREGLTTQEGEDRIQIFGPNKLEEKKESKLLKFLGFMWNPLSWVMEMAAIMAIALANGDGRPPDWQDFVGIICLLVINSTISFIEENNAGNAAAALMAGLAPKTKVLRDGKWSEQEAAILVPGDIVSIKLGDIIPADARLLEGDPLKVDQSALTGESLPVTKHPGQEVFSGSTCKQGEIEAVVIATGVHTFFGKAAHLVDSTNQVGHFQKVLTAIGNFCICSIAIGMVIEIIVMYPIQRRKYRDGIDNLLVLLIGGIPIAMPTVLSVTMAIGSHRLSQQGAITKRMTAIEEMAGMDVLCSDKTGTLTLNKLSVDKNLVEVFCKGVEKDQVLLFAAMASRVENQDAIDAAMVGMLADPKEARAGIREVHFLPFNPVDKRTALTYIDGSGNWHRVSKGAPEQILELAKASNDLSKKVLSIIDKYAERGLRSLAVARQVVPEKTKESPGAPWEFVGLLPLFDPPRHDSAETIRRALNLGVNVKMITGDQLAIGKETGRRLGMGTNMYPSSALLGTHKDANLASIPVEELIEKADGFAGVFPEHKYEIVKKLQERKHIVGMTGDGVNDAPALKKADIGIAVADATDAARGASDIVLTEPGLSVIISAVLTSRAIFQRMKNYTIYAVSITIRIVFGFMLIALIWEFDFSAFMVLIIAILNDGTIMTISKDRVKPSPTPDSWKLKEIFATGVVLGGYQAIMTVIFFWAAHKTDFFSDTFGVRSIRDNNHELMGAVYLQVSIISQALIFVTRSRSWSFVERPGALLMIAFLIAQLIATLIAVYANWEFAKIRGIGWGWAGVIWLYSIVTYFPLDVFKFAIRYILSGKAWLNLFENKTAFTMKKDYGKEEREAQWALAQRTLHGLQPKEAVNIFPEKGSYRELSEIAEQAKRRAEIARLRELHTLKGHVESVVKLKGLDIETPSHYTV
# Description: (§1) Assay conditions are 20 mM Mops, pH: 6.5, 50 mM KCl, 8 mM MgCl2 and 3 mM ATP. Production of Pi was measured by standard […] tests. The results are shown in FIG. 12A and the activity is given as the percentage of the ATP hydrolytic activity in the absence of various concentrations of Pt (±StDev).
# as §1, with “12B” for “12A”, “Ho” for “Pt”
# [3] = biological target: Sarcoplasmic Endoplasmic Reticulum Ca2+-ATPase (SERCA); settings: blocking SERCA; cited from earlier work
structure (smiles),measurement,setting,value
[O]=[V]([O-])([O-])[O-] [Vanadate],concentration at which the pumps are inhibited,[1],μM range
[Ho+3] [Ho],ATP hydrolytic activity of plasma membrane H+-ATPase,[2],inhibits
C/C=C(/C)C(=O)O[C@H]1C(C)=C2[C@H]([C@@H]1OC(=O)CCCCCCC)[C@@](C)(OC(C)=O)C[C@H](OC(=O)CCC)[C@@]1(O)[C@H]2OC(=O)[C@@]1(C)O [thapsigargin],Kd,[3],sub-nanomolar range
